Assay results reported in paper PMC8003796, “Identification of Anti-Severe Acute Respiratory Syndrome-Related Coronavirus 2 (SARS-CoV-2) Oxysterol Derivatives In Vitro” (International Journal of Molecular Sciences, 2021).
Several values for one entry are separate records, joined by “and”; a condition that tells them apart may be missing. Equal values may be shown once. Read-outs that look alike come from different tables or passages of the source.

Experiments:
in vitro = conditions: African green monkey
SARS-CoV-2 [1] = experiment: SARS-CoV-2 infection assay, viral RNA in culture supernatant by real-time RT-PCR; assay type: cell-based, SARS-CoV-2 Wk-521 strain; conditions: for IC90: Severe acute respiratory syndrome coronavirus 2, read-out: IC90 (90% maximal inhibitory concentration); for IC90 / IC50: viral RNA in culture supernatant, VeroE6/TMPRSS2 cells; for IC50: Severe acute respiratory syndrome coronavirus 2, read-out: IC50 (50% maximal inhibitory concentration); for effect on viral RNA (in words) / reduction of the production of viral RNA as compared to control: concentrations up to 30 μM; for reduction of the production of viral RNA as compared to control: natural oxysterols; for reduction of viral replication / effect of pathway inhibitors on viral RNA (in words): 10 μM; for reduction of viral RNA production: 15 μM; for effect on viral RNA level (in words): semi-synthetic oxysterols, up to 15 μM
TGFβ signaling [2] = experiment: TGFβ activity, CTGF mRNA in NIH3T3 cells; assay type: cell-based; conditions: 10 μM, NIH3T3 cells stimulated with 20 ng/mL TGFβ
Description: (§1) Scale bar, 100 μm. (B) Viral N protein in the cells was detected by immunofluorescence analysis as described in Figure 1C. Scale bar, 50 μm. (C) Dose-response curves for viral RNA upon treatment with oxysterol derivatives as indicated. The secreted viral RNA in the culture supernatant at 24 h post-inoculation was quantified by real-time RT-PCR and plotted against compound concentration. The chemical structures of oxysterols are also shown above the graphs. (D) Viability of cells treated with the compounds was quantified using an MTT assay. (E,F) Inhibitory effects toward transforming growth factor β (TGFβ) and hedgehog (Hh) signaling. […] Cellular mRNAs were extracted to quantify a TGFβ-downstream gene, connective tissue growth factor (CTGF) (E), a Hh target gene, Gli1 (F), and Oaz1 for normalization of CTGF and Gli1 (E,F).
(§2) TGFβ activity was examined with NIH3T3 cells precultured with DMEM containing 0.1% bovine calf serum (BCS) overnight. NIH3T3 cells were pretreated with the compounds for 2 h and then stimulated with TGFβ1 (20 ng/mL) in the presence or absence of compounds. After 48 h, RNA was extracted from the cells and analyzed for quantifying the mRNA for a TGFβ target gene, connective tissue growth factor (CTGF), and Oaz1 for normalization. […] Cellular RNA was extracted and analyzed for the expression of a Hh target gene, Gli1, and normalized to Oaz1 expression.

Hh signaling [3] = experiment: Hedgehog activity, Gli1 mRNA in NIH3T3 cells; assay type: cell-based; conditions: 10 μM, CAPAN-1 conditioned medium containing Shh
Description: as §1, §2

VeroE6/TMPRSS2 cells = experiment: Cell viability by MTT assay; conditions: up to 15 μM
hepatitis C virus (HCV) = experiment: HCV replication assay, luciferase in LucNeo#2 replicon cells; assay type: cell-based, HCV NN strain (genotype-1b); conditions: 10 μM Oxy210, 1 μM sofosbuvir, 48 h
Description: N, nucleus; M, mitochondria; *, double-membrane vesicle.
HCV replication activity was measured using LucNeo#2 cells, carrying a subgenomic replicon RNA for an HCV NN strain (genotype-1b) and the luciferase gene driven by the HCV replication. LucNeo#2 cells were treated with the compounds indicated in Figure 3C for 48 h, and the luciferase activity was measured with Luciferase Assay System kit (Promega, Madison, WI, USA).

SARS-CoV-2 [4] = experiment: Viral N protein by indirect immunofluorescence; assay type: cell-based, SARS-CoV-2 Wk-521 strain; conditions: 10 μM RDV, 30 μM cholesterol, 30 μM 7-KC, 10 μM Oxy133, 10 μM Oxy210
SARS-CoV-2 [5] = experiment: Virus-induced cytopathic effect (CPE) viewed under a microscope; assay type: cell-based, SARS-CoV-2 Wk-521 strain; conditions: 48 h post-inoculation; 10 μM RDV, 30 μM cholesterol, 30 μM 7-KC, 10 μM Oxy133, 10 μM Oxy210
SARS-CoV-2 [6] = experiment: Electron microscopy of double-membrane vesicle formation in infected cells; conditions: 10 μM, VeroE6/TMPRSS2 cells, MOI 1, 7 h
SARS-CoV-2 [7] = experiment: Time of addition assay (whole life cycle, entry, post-entry); assay type: cell-based, SARS-CoV-2 Wk-521 strain; conditions: 10 μM Oxy210, 10 μM Oxy133
Hh signaling [8] = conditions: fibroblastic cells and tumor cells ref 16; cited from earlier work
[9] = Pharmacokinetics in mice, single oral gavage dose; assay type: in vivo, balb/c mice; conditions: single oral dose 200 mg/kg; for Cmax: 200 mg/kg, read-out: Cmax (peak plasma concentration)
TGFβ signaling [10] = conditions: fibroblastic cells and tumor cells ref 16; cited from earlier work

CC(C)CC[C@H](O)[C@@H](C)[C@H]1CC[C@H]2[C@@H]3CC=C4C[C@@H](O)CC[C@]4(C)[C@H]3CC[C@]12C [22(S)-OHC, 22(S)-hydroxycholesterol]
CC50 (in vitro): > 30 µM | IC90 (SARS-CoV-2 [1]; 24 h post-inoculation): > 30 µM | IC50 (SARS-CoV-2 [1]; 24 h post-inoculation): > 30 µM | effect on viral RNA (in words) (SARS-CoV-2 [1]; 24 h post-inoculation): did not show apparent reductions in viral RNA

CC(C)[C@@H](O)CC[C@@H](C)[C@H]1CC[C@H]2[C@@H]3CC=C4C[C@@H](O)CC[C@]4(C)[C@H]3CC[C@]12C [24(S)-OHC, 24(S)-hydroxycholesterol]
CC50 (in vitro): > 30 µM | IC90 (SARS-CoV-2 [1]; 24 h post-inoculation): > 30 µM | IC50 (SARS-CoV-2 [1]; 24 h post-inoculation): 1.3 µM | reduction of the production of viral RNA as compared to control (SARS-CoV-2 [1]; 24 h post-inoculation): 80%–86%

CC[C@@](O)(CCc1cccnc1)[C@H]1CC[C@H]2[C@@H]3CC[C@H]4C[C@@H](O)CC[C@]4(C)[C@H]3CC[C@]12C [Oxy232]
inhibition of TGFβ signaling (CTGF mRNA, in words) (TGFβ signaling [2]): devoid of significant TGFβ inhibitory properties | CC50 (in vitro): > 15 µM | inhibition of Hh signaling (Gli1 mRNA, in words) (Hh signaling [3]): retains inhibitory activity toward Hh signaling | reduction of viral replication (SARS-CoV-2 [1]): more than 90% | reduction of viral RNA production (SARS-CoV-2 [1]; 24 h post-inoculation): 99.9% and > 99% | IC90 (SARS-CoV-2 [1]; 24 h post-inoculation): 7.8 µM | IC50 (SARS-CoV-2 [1]; 24 h post-inoculation): 5.4 µM | effect on viral RNA level (in words) (SARS-CoV-2 [1]; 24 h post-inoculation): reduced viral RNA level in a dose-dependent manner | cytotoxicity / cell viability (in words) (VeroE6/TMPRSS2 cells): slightly reduced cell viability when used at concentrations above 10 μM

CC(C)OC(=O)[C@H](C)N[P@](=O)(OC[C@H]1O[C@@H](n2ccc(=O)[nH]c2=O)[C@](C)(F)[C@@H]1O)Oc1ccccc1 [sofosbuvir, reference compound]
HCV replication, luciferase activity (in words) (hepatitis C virus (HCV)): positive control

CC(C)CCC[C@@H](C)[C@H]1CC[C@H]2[C@@H]3CC=C4C[C@@H](O)CC[C@]4(C)[C@H]3CC[C@]12C [Cholesterol, reference compound]
CC50 (in vitro): > 30 µM | effect on virus propagation / spread of infection, N protein (in words) (SARS-CoV-2 [4]): but not cholesterol, reduced | effect on SARS-CoV-2-induced CPE (in words) (SARS-CoV-2 [5]): but not cholesterol, reduced the SARS-CoV-2-induced CPE | IC90 (SARS-CoV-2 [1]; 24 h post-inoculation): > 30 µM | IC50 (SARS-CoV-2 [1]; 24 h post-inoculation): > 30 µM | effect on viral RNA (in words) (SARS-CoV-2 [1]; 24 h post-inoculation): did not show apparent reductions in viral RNA

C[C@]12CC[C@H]3[C@@H](CC=C4C[C@@H](O)CC[C@@]43C)[C@@H]1CC[C@@H]2[C@](C)(O)CCc1cccnc1 [Oxy210]
HCV replication, luciferase activity (in words) (hepatitis C virus (HCV)): reduced the DMV-dependent RNA replication of HCV | DMV formation in SARS-CoV-2-infected cells (in words) (SARS-CoV-2 [6]): remarkably reduced the DMV formation | viral RNA, compound present in the whole life cycle (in words) (SARS-CoV-2 [7]; 24 h): clearly reduced viral RNA levels | viral RNA, compound present post-entry (in words) (SARS-CoV-2 [7]; 15 μM RDV, added 2 h post-inoculation for 21 h): clearly reduced viral RNA levels | inhibition of Hh signaling (in words) (Hh signaling [8]): inhibited | CC50 (in vitro): > 15 µM | effect on virus propagation / spread of infection, N protein (in words) (SARS-CoV-2 [4]): blocked | Cmax ([9]; balb/c, mouse, in vivo, po, plasma): 8160 ng/mL and 19.4 µM | MRT ([9]; balb/c, mouse, in vivo, plasma): 3.5 h | Tmax ([9]; balb/c, mouse, in vivo, plasma): 1 h | AUC(0-inf) ([9]; balb/c, mouse, in vivo, plasma, read-out: AUC (AUCinf)): 29300 ng·h/mL | tolerability (in words) [9]: well tolerated | Cmax ([9]; plasma): ~19 µM | effect on SARS-CoV-2-induced CPE (in words) (SARS-CoV-2 [5]): blocked | inhibition of TGFβ signaling (in words) (TGFβ signaling [10]): inhibited | reduction of viral replication (SARS-CoV-2 [1]): more than 90% | reduction of viral RNA production (SARS-CoV-2 [1]; 24 h post-inoculation): 99.4% and > 99% | IC90 (SARS-CoV-2 [1]; 24 h post-inoculation): 8.6 µM | IC50 (SARS-CoV-2 [1]; 24 h post-inoculation): 5.5 µM | effect on viral RNA level (in words) (SARS-CoV-2 [1]; 24 h post-inoculation): reduced viral RNA level in a dose-dependent manner | cytotoxicity / cell viability (in words) (VeroE6/TMPRSS2 cells): No significant cytotoxicity

CC(C)CCC[C@@H](C)[C@H]1CC[C@H]2[C@@H]3CC=C4[C@@H](O)[C@@H](O)CC[C@]4(C)[C@H]3CC[C@]12C [4-beta-OHC, 4beta-hydroxycholesterol]
CC50 (in vitro): > 30 µM | IC90 (SARS-CoV-2 [1]; 24 h post-inoculation): > 30 µM | IC50 (SARS-CoV-2 [1]; 24 h post-inoculation): > 30 µM | effect on viral RNA (in words) (SARS-CoV-2 [1]; 24 h post-inoculation): did not show apparent reductions in viral RNA

C[C@@H](CO)CCC[C@@H](C)[C@H]1CC[C@H]2[C@@H]3CC=C4C[C@@H](O)CC[C@]4(C)[C@H]3CC[C@]12C [27-OHC, 27-hydroxycholesterol]
CC50 (in vitro): > 30 µM | IC90 (SARS-CoV-2 [1]; 24 h post-inoculation): > 30 µM | IC50 (SARS-CoV-2 [1]; 24 h post-inoculation): 3.5 µM | reduction of the production of viral RNA as compared to control (SARS-CoV-2 [1]; 24 h post-inoculation): 80%–86%

CCCCCC[C@@](C)(O)[C@H]1CC[C@H]2[C@@H]3C[C@H](O)[C@H]4C[C@@H](O)CC[C@]4(C)[C@H]3CC[C@@]21C [Oxy133]
CC50 (in vitro): > 15 µM | IC90 (SARS-CoV-2 [1]; 24 h post-inoculation): > 15 µM | IC50 (SARS-CoV-2 [1]; 24 h post-inoculation): > 15 µM | effect on viral RNA level (in words) (SARS-CoV-2 [1]; 24 h post-inoculation): did not show antiviral activity up to 15 μM

CC(C)CC[C@@H](O)[C@@H](C)[C@H]1CC[C@H]2[C@@H]3CC=C4C[C@@H](O)CC[C@]4(C)[C@H]3CC[C@]12C [22(R)-OHC, 22(R)-hydroxycholesterol]
CC50 (in vitro): > 30 µM | IC90 (SARS-CoV-2 [1]; 24 h post-inoculation): > 30 µM | IC50 (SARS-CoV-2 [1]; 24 h post-inoculation): 13.2 µM | reduction of the production of viral RNA as compared to control (SARS-CoV-2 [1]; 24 h post-inoculation): 80%–86%

CS(=O)(=O)c1ccc(C(=O)Nc2ccc(Cl)c(-c3ccccn3)c2)c(Cl)c1 [GDC0449, reference compound]
effect of pathway inhibitors on viral RNA (in words) (SARS-CoV-2 [1]; 24 h post-inoculation): did not decrease the viral RNA levels

CC(C)CCC[C@@H](C)[C@H]1CC[C@H]2[C@@H]3C(=O)C=C4C[C@@H](O)CC[C@]4(C)[C@H]3CC[C@]12C [7-KC, 7-ketocholesterol]
CC50 (in vitro): > 30 µM | effect on virus propagation / spread of infection, N protein (in words) (SARS-CoV-2 [4]): reduced | effect on SARS-CoV-2-induced CPE (in words) (SARS-CoV-2 [5]): reduced the SARS-CoV-2-induced CPE | IC90 (SARS-CoV-2 [1]; 24 h post-inoculation): > 30 µM | IC50 (SARS-CoV-2 [1]; 24 h post-inoculation): 14.5 µM | reduction of the production of viral RNA as compared to control (SARS-CoV-2 [1]; 24 h post-inoculation): 80%–86%

NC(=O)c1ccc(-c2nc(-c3ccc4c(c3)OCO4)c(-c3ccccn3)[nH]2)cc1 [SB431542, reference compound]
effect of pathway inhibitors on viral RNA (in words) (SARS-CoV-2 [1]; 24 h post-inoculation): did not significantly inhibit the production of viral RNA

C[C@]12CC[C@H](O)C[C@@H]1CC[C@@H]1[C@@H]2CC[C@@]2(C)[C@H]1CC[C@@H]2[C@](C)(O)CCc1ccc(F)cc1 [Oxy186]
CC50 (in vitro): > 15 µM | maximum reduction in viral RNA as compared to control (SARS-CoV-2 [1]; 12 μM, 24 h post-inoculation): 83% | IC90 (SARS-CoV-2 [1]; 24 h post-inoculation): > 15 µM | IC50 (SARS-CoV-2 [1]; 24 h post-inoculation): 7.4 µM | effect on viral RNA level (in words) (SARS-CoV-2 [1]; 24 h post-inoculation): reduced viral RNA level in a dose-dependent manner | cytotoxicity / cell viability (in words) (VeroE6/TMPRSS2 cells): No significant cytotoxicity
